Measurements from US20110166121A1 (LG LIFE SCIENCES LTD., priority 2008, published 2011).

What was measured:
[1] = target: T1, Human P2Y12 receptor (Homo sapiens, UniProt Q9H244); experiment: Human P2Y12 receptor cell membrane binding assay with [3H] 2-Mes-ADP; details: 1 nM [3H] 2-Mes-ADP, membranes of HEK cells expressing P2Y12 receptor; read-out: Binding activity (IC50)
T1 construct: expressed in transfected cells; host or cells: HEK cells
Method in brief: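 Membranes from HEK cells expressing human P2Y12 were incubated with compound and 1 nM [3H]2-MeS-ADP for 1 h at room temperature. Bound radioactivity was collected by GF/B filtration.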

[2] = tested on: Human platelet aggregation caused by ADP; experiment: Inhibition of ADP-induced platelet aggregation (Mimic-human PRP); assay type: cell-based; details: 20 μM ADP, human platelet concentrate diluted with PPP, absorption at 595 nm
Method in brief: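 Human PRP diluted with PPP to 3–4×10^8 platelets/mL was preincubated 20 min at room temperature with compound (0.01–30 μM, DMSO), then stimulated with 20 μM ADP. Aggregation read as A595 increase at 3 min versus 0 and 20 μM ADP controls; Ki from sigmoidal non-linear regression.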

T1 sequence (Q9H244 whole entry): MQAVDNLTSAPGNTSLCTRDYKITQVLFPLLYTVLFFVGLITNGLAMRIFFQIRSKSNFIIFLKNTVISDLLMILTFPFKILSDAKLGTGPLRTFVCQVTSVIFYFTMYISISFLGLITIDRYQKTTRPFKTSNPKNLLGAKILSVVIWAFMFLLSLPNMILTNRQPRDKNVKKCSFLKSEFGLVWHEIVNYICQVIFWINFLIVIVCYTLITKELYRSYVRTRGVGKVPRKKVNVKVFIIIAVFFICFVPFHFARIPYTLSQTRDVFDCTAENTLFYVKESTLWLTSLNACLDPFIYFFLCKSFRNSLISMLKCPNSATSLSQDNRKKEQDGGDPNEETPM

Row | SMILES | IC50 [1] [µM] | Ki [2] [µM]
1 | CCCc1cc2c(N3CCn4c(nnc4C(F)(F)F)C3)nc(-c3nnc(N)o3)nc2s1 [Example 4-39, 5-[6-Propyl-4-(3-trifluoromethyl-5,6-dihydro-8H-[1,2,4]triazolo[4,3-a]pyrazin-7-yl)thieno[2,3-d]pyrimidin-2-yl]-[1,3,4]oxadiazol-2-ylamine] | 0.1 | 0.16
2 | CCCc1cc2c(N3CCn4c(nnc4C(F)(F)F)C3)nc(-c3nnc(CC(=O)OCC)o3)nc2s1 [Example 4-40, {5-[6-Propyl-4-(3-trifluoromethyl-5,6-dihydro-8H-[1,2,4]triazolo[4,3-a]pyrazin-7-yl)thieno[2,3-d]pyrimidin-2-yl]-[1,3,4]oxadiazol-2-yl}acetic acid ethyl ester] | 0.23 | 0.27
3 | CCCc1cc2c(N3CCn4c(nnc4C(F)(F)F)C3)nc(-c3nnc(CC(=O)O)o3)nc2s1 [Example 4-41, {5-[6-Propyl-4-(3-trifluoromethyl-5,6-dihydro-8H-[1,2,4]triazolo[4,3-a]pyrazin-7-yl)thieno[2,3-d]pyrimidin-2-yl]-[1,3,4]oxadiazol-2-yl}acetic acid] | 0.41 | 0.7
4 | CCCc1cc2c(N3CCn4c(nnc4C(F)(F)F)C3)nc(-c3nnc(Cc4ccccc4)o3)nc2s1 [Example 4-42, 7-[2-(5-Benzyl-[1,3,4]oxadiazol-2-yl)-6-propyl-thieno[2,3-d]pyrimidin-4-yl]-3-trifluoromethyl-5,6,7,8-tetrahydro-[1,2,4]triazolo[4,3-a]pyrazine] | 0.029 | 0.16
5 | CCCc1cc2c(N3CCn4c(nnc4C(F)(F)F)C3)nc(-c3nnc(CC4CCCCC4)o3)nc2s1 [Example 4-43, 7-[2-(5-Cyclohexylmethyl-[1,3,4]oxadiazol-2-yl)-6-propyl-thieno[2,3-d]pyrimidin-4-yl]-3-trifluoromethyl-5,6,7,8-tetrahydro-[1,2,4]triazolo[4,3-a]pyrazine] | 0.147 | 2.7
6 | CCCc1cc2c(N3CCn4c(nnc4C(F)(F)F)C3)nc(-c3nnn[nH]3)nc2s1 [Example 4-44, 7-[6-Propyl-2-(1H-tetrazol-5-yl)-thieno[2,3-d]pyrimidin-4-yl]-3-trifluoromethyl-5,6,7,8-tetrahydro-[1,2,4]triazolo[4,3-a]pyrazine] | 1.6 | > 4
7 | CCCc1cc2c(N3CCn4c(nnc4C(F)(F)F)C3)nc(C3=N[C@H](C(=O)OC)CS3)nc2s1 [Example 4-47, (R)-2-[6-Propyl-4-(3-trifluoromethyl-5,6-dihydro-8H-[1,2,4]triazolo[4,3-a]pyrazin-7-yl)thieno[2,3-d]pyrimidin-2-yl]-4,5-dihydro-thiazole-4-carboxylic acid methyl ester] | 0.024 | 0.013
8 | CCCc1cc2c(N3CCn4c(nnc4C(F)(F)F)C3)nc(C3=N[C@H](CC(=O)OC(C)C)CS3)nc2s1 [Example 4-48, {(R)-2-[6-Propyl-4-(3-trifluoromethyl-5,6-dihydro-8H-[1,2,4]triazolo[4,3-a]pyrazin-7-yl)thieno[2,3-d]pyrimidin-2-yl]-4,5-dihydro-thiazol-4-yl}acetic acid isopropyl ester] | 0.21 | 0.51
9 | CCCc1cc2c(N3CCn4c(nnc4C(F)(F)F)C3)nc(C3=N[C@H](CC(=O)O)CS3)nc2s1 [Example 4-49, {(R)-2-[6-Propyl-4-(3-trifluoromethyl-5,6-dihydro-8H-[1,2,4]triazolo[4,3-a]pyrazin-7-yl)thieno[2,3-d]pyrimidin-2-yl]-4,5-dihydro-thiazol-4-yl}acetic acid] | 0.033 | 0.011
10 | CCCc1cc2c(N3CCn4c(nnc4C(F)(F)F)C3)nc(-c3nc(CO)cs3)nc2s1 [Example 4-50, {2-[6-Propyl-4-(3-trifluoromethyl-5,6-dihydro-8H-[1,2,4]triazolo[4,3-a]pyrazin-7-yl)thieno[2,3-d]pyrimidin-2-yl]thiazol-4-yl}methanol] | 0.057 | 0.034
11 | CCCc1cc2c(N3CCn4c(nnc4C(F)(F)F)C3)nc(-c3nc(CC(=O)OCC)cs3)nc2s1 [Example 4-51, {2-[6-Propyl-4-(3-trifluoromethyl-5,6-dihydro-8H-[1,2,4]triazolo[4,3-a]pyrazin-7-yl)thieno[2,3-d]pyrimidin-2-yl]thiazol-4-yl}acetic acid ethyl ester] | 0.04 | 0.036
12 | CCCc1cc2c(N3CCn4c(nnc4C(F)(F)F)C3)nc(-c3nc(CC(=O)O)cs3)nc2s1 [Example 4-52, {2-[6-Propyl-4-(3-trifluoromethyl-5,6-dihydro-8H-[1,2,4]triazolo[4,3-a]pyrazin-7-yl)thieno[2,3-d]pyrimidin-2-yl]thiazol-4-yl}acetic acid] | 0.014 | 0.038
13 | CCCc1cc2c(N3CCn4c(nnc4C(F)(F)F)C3)nc(CC(=O)OCC)nc2s1 [Example 4-53, [6-Propyl-4-(3-trifluoromethyl-5,6-dihydro-8H-[1,2,4]triazolo[4,3-a]pyrazin-7-yl)thieno[2,3-d]pyrimidin-2-yl]acetic acid ethyl ester] | 0.3 | 5.25
14 | CCCc1cc2c(N3CCn4c(nnc4C(F)(F)F)C3)nc(CC(=O)O)nc2s1 [Example 4-54, [6-Propyl-4-(3-trifluoromethyl-5,6-dihydro-8H-[1,2,4]triazolo[4,3-a]pyrazin-7-yl)thieno[2,3-d]pyrimidin-2-yl]acetic acid] | 0.37 | 0.47
15 | CCCc1cc2c(N3CCn4c(nnc4C(F)(F)F)C3)nc(CC(N)=O)nc2s1 [Example 4-55, 2-[6-Propyl-4-(3-trifluoromethyl-5,6-dihydro-8H-[1,2,4]triazolo[4,3-a]pyrazin-7-yl)-thieno[2,3-d]pyrimidin-2-yl]-acetamide] | 0.174 | 0.0042
16 | CCCc1cc2c(N3CCn4c(nnc4C(F)(F)F)C3)nc(CC(N)=S)nc2s1 [Example 4-56, 2-[6-Propyl-4-(3-trifluoromethyl-5,6-dihydro-8H-[1,2,4]triazolo[4,3-a]pyrazin-7-yl)-thieno[2,3-d]pyrimidin-2-yl]-thioacetamide] | 0.17 | 0.0064
17 | CCCc1cc2c(N3CCn4c(nnc4C(F)(F)F)C3)nc(Cc3nc(C(=O)OCC)cs3)nc2s1 [Example 4-57, 2-[6-Propyl-4-(3-trifluoromethyl-5,6-dihydro-8H-[1,2,4]triazolo[4,3-a]pyrazin-7-yl)-thieno[2,3-d]pyrimidin-2-ylmethyl]-thiazole-4-carboxylic acid ethyl ester] | 0.24 | 0.28
18 | CCCc1cc2c(N3CCn4c(nnc4C(F)(F)F)C3)nc(Cc3nc(C(=O)O)cs3)nc2s1 [Example 4-58, 2-[6-Propyl-4-(3-trifluoromethyl-5,6-dihydro-8H-[1,2,4]triazolo[4,3-a]pyrazin-7-yl)-thieno[2,3-d]pyrimidin-2-ylmethyl]-thiazole-4-carboxylic acid] | 0.3 | 0.243
19 | CCCc1cc2c(N3CCn4c(nnc4C(F)(F)F)C3)nc(-c3nc(CCO)cs3)nc2s1 [Example 4-59, 2-{2-[6-Propyl-4-(3-trifluoromethyl-5,6-dihydro-8H-[1,2,4]triazolo[4,3-a]pyrazin-7-yl)-thieno[2,3-d]pyrimidin-2-yl]-thiazol-4-yl}-ethanol] | 0.04 | 0.0084
20 | CCCc1nc2c(N3CCn4c(nnc4C(F)(F)F)C3)nc(N3CCNC(=O)C3)nc2s1 [Example 5-4, 4-[2-Propyl-7-(3-trifluoromethyl-5,6-dihydro-8H-[1,2,4]triazolo[4,3-a]pyrazin-7-yl)-thiazolo[5,4-d]pyrimidin-5-yl]-piperazin-2-one] | 0.072 | 0.057
21 | CCCc1nc2c(N3CCn4c(nnc4C(F)(F)F)C3)nc(N3CC[C@H](N)C3)nc2s1 [Example 5-5, (S)-1-[2-Propyl-7-(3-trifluoromethyl-5,6-dihydro-8H-[1,2,4]triazolo[4,3-a]pyrazin-7-yl)-thiazolo[5,4-d]pyrimidin-5-yl]-pyrrolidin-3-ylamine] | 0.17 | 0.025
22 | CCCc1nc2c(N3CCn4c(nnc4C(F)(F)F)C3)nc(N3CCC[C@H](C(=O)OCC)C3)nc2s1 [Example 5-6, (S)-1-[2-Propyl-7-(3-trifluoromethyl-5,6-dihydro-8H-[1,2,4]triazolo[4,3-a]pyrazin-7-yl)-thiazolo[5,4-d]pyrimidin-5-yl]-piperidine-3-carboxylic acid ethyl ester] | 0.63 | > 4
23 | CCCc1nc2c(N3CCn4c(nnc4C(F)(F)F)C3)nc(N3CCC[C@H](C(=O)O)C3)nc2s1 [Example 5-7, (S)-1-[2-Propyl-7-(3-trifluoromethyl-5,6-dihydro-8H-[1,2,4]triazolo[4,3-a]pyrazin-7-yl)-thiazolo[5,4-d]pyrimidin-5-yl]-piperidine-3-carboxylic acid] | 0.032 | 0.038
24 | CCc1cc2c(N3CCn4c(nnc4C(F)(F)C(F)(F)F)C3)nc(OCC(O)CO)nc2s1 (centres unmarked) [Example 6-3, 3-[6-Ethyl-4-(3-pentafluoroethyl-5,6-dihydro-8H-[1,2,4]triazolo[4,3-a]pyrazin-7-yl)-thieno[2,3-d]pyrimidin-2-yloxy]-propane-1,2-diol] | 0.62 | 0.395
25 | CCCc1cc2c(N3CCn4c(nnc4C(F)(F)C(F)(F)F)C3)nc(N3CCNC(=O)C3)nc2s1 [Example 6-4, 4-[4-(3-Pentafluoroethyl-5,6-dihydro-8H-[1,2,4]triazolo[4,3-a]pyrazin-7-yl)-6-propyl-thieno[2,3-d]pyrimidin-2-yl]-piperazin-2-one] | 0.128 | 0.308
